Results reported in patent US8063025B2, “Nucleoside prodrugs and uses thereof” (Metabasis Therapeutics, Inc., priority 2007, dated 2011).
Like-named read-outs stand apart in the source and are kept apart here.

Tests used:
[1] = biological target: T1, HCV polymerase (NS5B570n-Con1) (Hepatitis C virus genotype 1b, UniProt Q9WMX2); test: HCV NS5B RNA polymerase activity; assay type: biochemical, HCV Con1 strain
T1 construct: contains a 21 amino acid deletion at the C-terminus relative to the full-length HCV polymerase; 6-histidine (N); made in house; host or cells: E. coli BL21 (DE) pLysS, plasmid pET17b
Protocol: The enzymatic activity of HCV polymerase (NS5B570n-Con1) was measured as the incorporation of radiolabeled nucleotide monophosphates into acid insoluble RNA products. Unincorporated radiolabeled substrate was removed by filtration and scintillant was added to the washed and dried filter plate containing radiolabeled RNA product. The amount of RNA product generated by NS5B570-Con1 at the end of the reaction was directly proportional to the amount of light emitted by the scintillant.
The N-terminal 6-histidine tagged HCV polymerase, derived from HCV Con1 strain, genotype 1b (NS5B570n-Con1) contains a 21 amino acid deletion at the C-terminus relative to the full-length HCV polymerase and was purified from E. coli strain BL21 (DE) pLysS. The construct, containing the coding sequence of HCV NS5B Con1 (GenBank accession number AJ242654) was inserted into the plasmid construct pET17b, downstream of a T7 promoter expression cassette and transformed into E. coli. […]
The amount of light emitted from the scintillant was converted to counts per minute (CPM) on a Topcount® plate reader (Perkin-Elmer, Energy Range: Low, Efficiency Mode: Normal, Count Time: 1 min, Background Subtract: none, Cross talk reduction: Off).
Data was analyzed in Excel® (Microsoft®) and ActivityBase® (Idbs®). […] All data was expressed as a percentage of the positive control. […]

rat hepatocytes = test: NTP generation in rat hepatocytes; assay type: in vitro ADME, male Wistar rats; details: for Rat hepatocyte NTP: Table 2
Protocol: Hepatocytes were prepared from male Wistar rats (250-300 g) according to the procedure of Berry and Friend (Berry, M. N.; Friend, D. S. J. Cell Biol. 1969, 43, 506-520) as modified by Groen (Groen, A. K.; Sips, H. J.; Vervoom, R. C.; Tager, J. M. Eur. J. Biochem. 1982, 122, 87-93). Hepatocytes (20 mg/mL wet weight, >85% trypan blue viability) were incubated at 37° C. in 2 mL of Krebs-bicarbonate buffer containing 20 mM glucose, and 1 mg/mL BSA for 2 h in the presence of 10 μM nucleoside or prodrug (from 10 mM stock solutions in DMSO, n>4).
Following the incubation of 4′-azidocytidine analogues, 1600 μL aliquot of the cell suspension was centrifuged and 300 μL of acetonitrile was added to the pellet, vortexed and sonicated until the pellet broke down. Then 200 μL of water was added to make a 60% acetonitrile solution. After 10 min centrifugation at 14,000 rpm, the resulting supernatant was transferred to a new vial and evaporated to near dryness in a Savant SpeedVac Plus at room temperature. The dried residue was reconstituted with 200 μL of water and the mixture was centrifuged for 10 min at 14,000 rpm. A mixture of 35 μL aliquot of supernatant and 35 μL of mobile phase A (20 mM N—N-dimethylhexylamine and 10 mM propionic acid in 20% methanol) was analyzed by LC-MS/MS (Applied Biosystems, API 4000) equipped with an Agilent 1100 binary pump and a LEAP injector. NTP was detected by using MS/MS mode (M-/78.8) and quantified based on comparison to a standard of 2′-C-methyladenosine-5′-triphosphate for 4′-azidocytidine and the compound described in Example 1.
Following incubation of the 4′-azidouridine analogues, 1600 μL aliquot of the cell suspension was centrifuged and 500 μL of acetonitrile containing 0.1 mg/mL dicyclohexylcarbodiimide (DCCD) and 0.1% ammonium hydroxide was added to the pellet and vigorously mixed by vortexing. Liver extracts were analyzed by LC-MS/MS using a Luna NH2 column (5 micron, 2×50 mm, Phenomenex) fitted with a SecurityGuard C18 guard column (5 micron, 4.0×2.0 mm, Phenomenex) and eluted with a gradient from mobile phase A (10 mM ammonium acetate in 50% acetonitrile) to B (1 mM ammonium acetate in 50% acetonitrile containing 1% concentrated ammonium hydroxide) at a flow rate of 0.6 mL/min. The injector temperature was set at 4° C. 4′-AUMP, 4′-AUDP, and […] were detected using the MS/MS mode (364.1/150.8 for 4′-AUMP, 444.1/176.8 for 4′-AUDP, and 524.1/158.9 for 4′-AUTP) and quantified by comparison of peak areas to standard curves obtained by spiking known concentrations of the analytes to blank liver extract.

[2] = tested on: hepatitis C virus replicon; details: cited from earlier work
[3] = Evaluation of liver NTP levels in rat; assay type: in vivo, Sprague-Dawley or Wistar rats; details: i.v. administration as printed
[4] = Rat portal vein pharmacokinetic study; design: species or system Male Hanover-Wistar (HW) rats; details: in vivo, 7 mg/kg
Protocol: Pharmacokinetic analysis of the esters was carried out as described in Example 2. The calculated value for % Fhepatic is the ratio of measured of the quantity present in the post-hepatic
[formula] circulation (AUCjugular) to the pre-hepatic concentration (AUCportal). This value reflects uptake of the prodrug by hepatocytes. […] These values reflect observed concentrations of non-esterified drug phosphate 26a. The calculated value % Fgut is the ratio of the concentration
[formula] of 26a observed in the portal vein which directly reflects absorption through the gut compared to the concentration observed in the jugular vein after i.v. administration of the same dose. Increased absorption through the gut will increase the observed % Fgut.
Male Hanover-Wistar (HW) rats were obtained from Charles River Laboratories (Wilmington, Mass.). […] Plasma samples were extracted by protein precipitation and analyzed by liquid chromatography coupled to tandem mass spectrometry (LC/MS/MS) for concentrations of 26b, 26a and 20.
Pharmacokinetic parameters were calculated using a non-compartmental model in Watson software (Watson, Thermo Fisher, Waltham, Mass.). % Fhepatic was calculated from the dose-normalized area under the curve (AUC) values obtained from sampling either the portal or jugular vein after PO administration as follows: […]

HCV [5] = details: phase 2 study, 1500 mg BID for 14 days; cited from earlier work
HCV [6] = details: chimpanzee, 7 days, cited from earlier work

**Q.** With [N-]=[N+]=N[C@]1(COP(=O)(O)O)O[C@@H](n2ccc(=O)[nH]c2=O)[C@H](O)[C@@H]1O [4′-AU monophosphate] as the compound, how does the IC50 [1] read?
**A.** The IC50 was 0.218 µM.

**Q.** Which “Rat hepatocyte NTP” value (rat hepatocytes; 10 μM) does the source give for [N-]=[N+]=N[C@]1(CO)O[C@@H](n2ccc(=O)[nH]c2=O)[C@H](O)[C@@H]1O [4′-azidouridine] here?
**A.** Its value is “<LOQ”.

**Q.** And the EC50 [2]?
**A.** Its EC50 is over 100 µM.

**Q.** And the “potency in the cell-based replicon assay” value [2]?
**A.** The value was “inactive”.

**Q.** With [N-]=[N+]=N[C@]1(CO[P@@]2(=O)OCC[C@@H](c3cccc(Cl)c3)O2)O[C@@H](n2ccc(N)nc2=O)[C@H](O)[C@@H]1O [Example 1, 4′-azido-cis-5′-O-[4-(S)-(3-chlorophenyl)-2-oxo-1,3,2-dioxaphosphorinan-2-yl]-cytidine] as the compound, how does the “nucleoside triphosphate levels in treated rat hepatocytes” value (rat hepatocytes) read?
**A.** The value was “dose dependent increase”.

**Q.** What about the “NTP levels after administration to a rat” value [3] of the same compound?
**A.** The value was “very low levels”.

**Q.** With [N-]=[N+]=N[C@]1(CO[P@@]2(=O)OCC[C@@H](c3cccc(Cl)c3)O2)O[C@@H](n2ccc(=O)[nH]c2=O)[C@H](O)[C@@H]1O [Example 2, 4′-azido-cis-5′-O-[4-(S)-(3-Chlorophenyl)-2-oxo-1,3,2-dioxaphosphorinan-2-yl]uridine] as the compound, how does the “nucleoside triphosphate levels in treated rat hepatocytes” value (rat hepatocytes) read?
**A.** The value was “dose dependent increase”.

**Q.** And the “NTP levels after administration to a rat” value [3]?
**A.** Its value is “elevated levels”.

**Q.** With [N-]=[N+]=N[C@]1(COP2(=O)OCC[C@@H](c3ccc(Br)cc3F)O2)O[C@@H](n2ccc(=O)[nH]c2=O)[C@H](O)[C@@H]1O (some centres unmarked) [Example 43] as the compound, how does the “circulating diester after oral dosing” value [4] read?
**A.** The value was “no circulating diester is observed”.

**Q.** With C[C@H](NP(=O)(OC[C@@]1(N=[N+]=[N-])O[C@@H](n2ccc(=O)[nH]c2=O)[C@H](O)[C@@H]1O)Oc1cccc2ccccc12)C(=O)OCc1ccccc1 (some centres unmarked) [Example R0142] as the compound, how does the EC50 [2] read?
**A.** The EC50 was 0.22 µM.

**Q.** With [N-]=[N+]=N[C@]1(CO)O[C@@H](n2ccc(N)nc2=O)[C@H](O)[C@@H]1O [Example R1479, 4′-azidocytidine] as the compound, how does the “Rat hepatocyte NTP” value (rat hepatocytes; 10 μM) read?
**A.** Its value is “<LOQ”.

**Q.** What about the “nmol NTP/g @ 10 μM (±SEM)” value (rat hepatocytes; rat hepatocytes, 10 μM, 2 h, Table 4) of the same compound?
**A.** Its value is “<LOQ”.

**Q.** What about the EC50 [2] of the same compound?
**A.** The EC50 was 1.28 µM.

**Q.** What about the “potency in the cell-based replicon assay” value [2] of the same compound?
**A.** Its value is “reasonable potency”.

**Q.** With CC(C)C(=O)OC[C@@]1(N=[N+]=[N-])O[C@@H](n2ccc(N)nc2=O)[C@H](OC(=O)C(C)C)[C@@H]1OC(=O)C(C)C [Example R1626] as the compound, how does the “mean reduction in serum viral titer” value (HCV [5]) read?
**A.** The value was 1.2 log10.

**Q.** For C[C@@]1(O)[C@H](O)[C@@H](CO)O[C@H]1n1ccc2c(N)ncnc21 [MK-0608], which “reduction in viral titer” value (HCV [6]; intravenous dose of 2 mg/kg/day) is on record?
**A.** Its value is over 5 log10.

**Q.** For CC(C)C(N)C(=O)O[C@@H]1[C@@H](CO)O[C@@H](n2ccc(N)nc2=O)[C@]1(C)O (some centres unmarked) [NM283], which “reduction in viral titer” value (HCV [6]; 16.6 mg/kg/day) is on record?
**A.** The value was 1.15 log10.
